From PubChem BioAssay AID330 (DTP/NCI, 2004)
Values joined by “and” are separate entries in the source; they are usually repeats but may differ in a detail not shown here. Equal values may be shown once. Toxic doses and inconclusive results are not listed. Rule for the calls: active = survival T/C of 150% or more; inactive = T/C below 125% in these data.

Tested on: P388 leukemia ip, CD2F1 mice, survival T/C
Experiment: NCI In Vivo Anticancer Drug Screen. Data for tumor model P388 Leukemia (intraperitoneal) in CD2F1 (CDF1) mice
Settings: endpoint: median survival time, higher = longer survival
Procedure, shortened: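 Mice carrying the transplanted tumor received test compound or vehicle. Survival was recorded in each group, and the value is the treated-group measurement divided by that of the vehicle-treated control group.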

[1] = dose: 25.0 mg/kg/injection, schedule: Q01DX009 (ip), vehicle: Klucel (hydroxypropylcellulose) (HPC)
[2] = dose: 50.0 mg/kg/injection, schedule: Q01DX009 (ip), vehicle: Klucel (hydroxypropylcellulose) (HPC)
[3] = dose: 60.0 mg/kg/injection, schedule: Q01DX005 (ip), vehicle: saline with Tween-80
[4] = dose: 120.0 mg/kg/injection, schedule: Q01DX005 (ip), vehicle: saline with Tween-80
[5] = dose: 240.0 mg/kg/injection, schedule: Q01DX005 (ip), vehicle: saline with Tween-80
[6] = dose: 60.0 mg/kg/injection, schedule: Q01DX005 (ip), vehicle: Klucel (hydroxypropylcellulose) (HPC)
[7] = dose: 120.0 mg/kg/injection, schedule: Q01DX005 (ip), vehicle: Klucel (hydroxypropylcellulose) (HPC)
[8] = dose: 240.0 mg/kg/injection, schedule: Q01DX005 (ip), vehicle: Klucel (hydroxypropylcellulose) (HPC)
[9] = dose: 50.0 mg/kg/injection, schedule: Q01DX009 (ip), vehicle: saline with Tween-80
[10] = dose: 100.0 mg/kg/injection, schedule: Q01DX009 (ip), vehicle: saline with Tween-80
[11] = dose: 50.0 mg/kg/injection, schedule: Q01DX005 (ip), vehicle: saline with Tween-80
[12] = dose: 100.0 mg/kg/injection, schedule: Q01DX005 (ip), vehicle: saline with Tween-80
[13] = dose: 200.0 mg/kg/injection, schedule: Q01DX005 (ip), vehicle: saline with Tween-80
[14] = dose: 50.0 mg/kg/injection, schedule: Q01DX009 (ip), vehicle: saline
[15] = dose: 12.5 mg/kg/injection, schedule: Q01DX005 (ip), vehicle: saline with Tween-80
[16] = dose: 25.0 mg/kg/injection, schedule: Q01DX005 (ip), vehicle: saline with Tween-80
[17] = dose: 50.0 mg/kg/injection, schedule: Q01DX005 (ip), vehicle: Klucel (hydroxypropylcellulose) (HPC)
[18] = dose: 100.0 mg/kg/injection, schedule: Q01DX005 (ip), vehicle: Klucel (hydroxypropylcellulose) (HPC)
[19] = dose: 200.0 mg/kg/injection, schedule: Q01DX005 (ip), vehicle: Klucel (hydroxypropylcellulose) (HPC)
[20] = dose: 25.0 mg/kg/injection, schedule: Q01DX005 (ip), vehicle: Klucel (hydroxypropylcellulose) (HPC)

Measured: T/C

c1ccc(N=NC(c2ccccc2)(c2ccccc2)c2ccccc2)cc1
inactive: dose: 6.25 mg/kg/injection, schedule: Q01DX009 (ip), vehicle: Klucel (hydroxypropylcellulose) (HPC) 110 % of control | dose: 12.5 mg/kg/injection, schedule: Q01DX009 (ip), vehicle: Klucel (hydroxypropylcellulose) (HPC) 110 % of control | [1] 99 % of control | [2] 107 % of control

CN=C(N)NN=C(c1cccc(F)c1)c1cccc(F)c1
inactive: dose: 25.0 mg/kg/injection, schedule: Q04DX002 (ip), vehicle: saline with Tween-80 100 % of control | dose: 50.0 mg/kg/injection, schedule: Q04DX002 (ip), vehicle: saline with Tween-80 102 % of control | dose: 100.0 mg/kg/injection, schedule: Q04DX002 (ip), vehicle: saline with Tween-80 100 % of control

N#CC(C(=O)CCCC(=O)Nc1cccc([N+](=O)[O-])c1)c1cccc2ccccc12 (stereo not given)
inactive: [3] 104 % of control | [4] 108 % of control | [5] 101 % of control

Cc1ncc(C(=O)O)n1Cc1ccccc1
inactive: [6] 94 % of control | [7] 93 % of control | [8] 93 % of control

O=C1C(c2ccccc2)=C(c2ccccc2)C2(c3ccccc3)Oc3c(Cl)c(Cl)c(Cl)c(Cl)c3OC12c1ccccc1 (stereo not given)
inactive: [9] 89 % of control | [10] 93 % of control

C[N+]1(C)CCC2=CC(=O)CC(c3ccccc3)C2C1 (stereo not given)
inactive: [11] 100 % of control | [12] 98 % of control | [13] 103 % of control

C[C@]12C=CC(=O)C=C1CC[C@H]1[C@@H]3CCC(=O)O[C@@]3(C)CC(=O)[C@@]12F
inactive: dose: 100.0 mg/kg/injection, schedule: Q04DX003 (ip), vehicle: saline with Tween-80 91 % of control | dose: 200.0 mg/kg/injection, schedule: Q04DX003 (ip), vehicle: saline with Tween-80 95 % of control | dose: 400.0 mg/kg/injection, schedule: Q04DX003 (ip), vehicle: saline with Tween-80 100 % of control

COc1ccc(-c2cc3c(c4cc(OC)ccc24)C(=O)OC3=O)cc1
inactive: [3] 93 % of control | [4] 97 % of control | [5] 98 % of control

O=C1C=C(n2ccccc2=O)CCC1
inactive: dose: 60.0 mg/kg/injection, schedule: Q01DX005 (ip), vehicle: saline 93 % of control | dose: 120.0 mg/kg/injection, schedule: Q01DX005 (ip), vehicle: saline 93 % of control | dose: 240.0 mg/kg/injection, schedule: Q01DX005 (ip), vehicle: saline 102 % of control

CCOC1CC2C(=O)C(CC)=C(OC)CC2(CC)CO1 (stereo not given)
inactive: [3] 98 % of control | [4] 99 % of control

COc1cc2c(c(OC)c1OC)-c1ccc(OC)c(=O)cc1[C@@H](N(C)C)CC2
inactive: dose: 1.25 mg/kg/injection, schedule: Q01DX009 (ip), vehicle: Klucel (hydroxypropylcellulose) (HPC) 100 % of control | dose: 2.5 mg/kg/injection, schedule: Q01DX009 (ip), vehicle: Klucel (hydroxypropylcellulose) (HPC) 107 % of control | dose: 5.0 mg/kg/injection, schedule: Q01DX009 (ip), vehicle: Klucel (hydroxypropylcellulose) (HPC) 112 % of control and 117 % of control | dose: 10.0 mg/kg/injection, schedule: Q01DX009 (ip), vehicle: Klucel (hydroxypropylcellulose) (HPC) 118 % of control and 124 % of control

O=C(Nc1ccc(Cl)c(Cl)c1)Sc1ccc(O)cc1
inactive: dose: 12.5 mg/kg/injection, schedule: Q01DX009 (ip), vehicle: saline 91 % of control | dose: 25.0 mg/kg/injection, schedule: Q01DX009 (ip), vehicle: saline 91 % of control | [9] 96 % of control | [14] 117 % of control | [10] 91 % of control

COC(=O)Cn1/c(=N\N=C\c2ccc(C)cc2)sc2ccccc21
inactive: dose: 100.0 mg/kg/injection, schedule: Q01DX001 (ip), vehicle: saline with Tween-80 91 % of control | dose: 200.0 mg/kg/injection, schedule: Q01DX001 (ip), vehicle: saline with Tween-80 91 % of control | dose: 400.0 mg/kg/injection, schedule: Q01DX001 (ip), vehicle: saline with Tween-80 89 % of control

C(#C[P+]1(c2ccccc2)C=C(c2ccccc2)OC(c2ccccc2)=C1)c1ccccc1
inactive: [15] 107 % of control | [16] 102 % of control | [11] 107 % of control

Cc1ccc(S(=O)(=O)C2(NC(=O)C3CC3)CC2)cc1
inactive: [6] 89 % of control | [7] 89 % of control

COc1ccc(CC(NC(=O)NSc2ccccc2)C(=O)NC2C(CO)OC(n3cnc4c(N(C)C)ncnc43)C2O)cc1 (stereo not given)
inactive: [15] 90 % of control | [16] 93 % of control | [11] 88 % of control and 91 % of control

c1ccc(CN2COCO[C@H]3CCC[C@@H]32)cc1
inactive: [17] 107 % of control | [18] 104 % of control

S=c1[nH][nH]c(=S)s1
inactive: [1] 95 % of control | [2] 95 % of control

NNC(=O)CCn1[nH]c(=O)c(Cl)c(Cl)c1=O
inactive: [11] 100 % of control | [12] 100 % of control | [13] 100 % of control

NN1CCCC1
inactive: dose: 100.0 mg/kg/injection, schedule: Q04DX003 (ip), vehicle: saline 90 % of control | dose: 200.0 mg/kg/injection, schedule: Q04DX003 (ip), vehicle: saline 95 % of control

O=c1nnc(O)c2n(O)cccc1-2
inactive: [3] 100 % of control | [4] 105 % of control | [5] 97 % of control

CCCN(CCC)c1ccc(C(=O)Oc2c(C)cccc2OC)cc1
inactive: [17] 93 % of control | [18] 102 % of control | [19] 90 % of control

COC(=O)/C=C(/Sc1nc(Cl)c(Cl)nc1N)C(=O)OC (tested in a mixture with another compound)
inactive: dose: 7.5 mg/kg/injection, schedule: Q01DX005 (ip), vehicle: Klucel (hydroxypropylcellulose) (HPC) 103 % of control | dose: 15.0 mg/kg/injection, schedule: Q01DX005 (ip), vehicle: Klucel (hydroxypropylcellulose) (HPC) 113 % of control | dose: 30.0 mg/kg/injection, schedule: Q01DX005 (ip), vehicle: Klucel (hydroxypropylcellulose) (HPC) 113 % of control

CCOC(=O)CN1CN(CCCN(C)C)CC(C)(C)C1OCC (stereo not given)
inactive: dose: 15.0 mg/kg/injection, schedule: Q01DX009 (ip), vehicle: saline with Tween-80 108 % of control | dose: 30.0 mg/kg/injection, schedule: Q01DX009 (ip), vehicle: saline with Tween-80 98 % of control | dose: 60.0 mg/kg/injection, schedule: Q01DX009 (ip), vehicle: saline with Tween-80 99 % of control

N#CC1=C(N)OC(C2CC2)=C(C#N)C1c1cccs1 (stereo not given)
inactive: [6] 104 % of control | [7] 100 % of control | [8] 96 % of control

O=C1c2c(O)ccc(N3CCOCC3)c2C(=O)c2c(N3CCOCC3)ccc(O)c21
inactive: [6] 103 % of control | [7] 98 % of control | [8] 100 % of control

Nc1nc(I)c2ncn(C3OC(CO)C(O)C3O)c2n1 (stereo not given)
inactive: [11] 98 % of control | [12] 92 % of control | [13] 96 % of control

Nc1nc2[nH]c(=O)[nH]c(=O)c2[nH]1
inactive: [11] 100 % of control | [12] 102 % of control | [13] 109 % of control

CCOC(=O)Cc1c[nH]c2ccc(N(CCO)CCO)cc12
inactive: [20] 101 % of control | [17] 102 % of control | [18] 102 % of control | [19] 98 % of control

COc1ccc(/C(Cc2ccccc2)=N/NS(=O)(=O)c2ccc(C)cc2)cc1
inactive: [14] 89 % of control | dose: 100.0 mg/kg/injection, schedule: Q01DX009 (ip), vehicle: saline 101 % of control | dose: 200.0 mg/kg/injection, schedule: Q01DX009 (ip), vehicle: saline 98 % of control

CC(=O)c1c(-c2ccc(Cl)cc2)c(-c2ccc(Cl)cc2)nn(C(C)CO)c1=O (stereo not given)
inactive: [11] 103 % of control | [12] 100 % of control | [13] 97 % of control

COc1cc2c(cc1C1COc3cc4occc4cc3C1=O)OCO2 (stereo not given)
inactive: dose: 12.5 mg/kg/injection, schedule: Q01DX005 (ip), vehicle: Klucel (hydroxypropylcellulose) (HPC) 97 % of control | [20] 95 % of control | [17] 92 % of control | [18] 95 % of control | [19] 95 % of control

COC(=O)c1cccc2c1Oc1c(cccc1C(=O)OC)S2
inactive: dose: 100.0 mg/kg/injection, schedule: Q04DX002 (ip), vehicle: Klucel (hydroxypropylcellulose) (HPC) 109 % of control | dose: 200.0 mg/kg/injection, schedule: Q04DX002 (ip), vehicle: Klucel (hydroxypropylcellulose) (HPC) 115 % of control | dose: 400.0 mg/kg/injection, schedule: Q04DX002 (ip), vehicle: Klucel (hydroxypropylcellulose) (HPC) 117 % of control
